The text below walks through data of the supplement of paper PMC11061612.

Common to all, as to test: Bliss excess, mean over the matrix (fraction); higher = more synergy
Test [1] deals with ASH-3 (Thyroid Gland Carcinoma). The method, boiled down: (§1)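 Cell lines grown in DMEM/F12 or RPMI with 10% FBS were plated in 1536-well plates and held 24 hours at 37°C, 5% CO2 before 72 hours of exposure to two-drug dose matrices, with DMSO typically at 0.2%. CellTiter-Glo 2.0 luminescence gave viability, which was converted to inhibition. Vehicle wells were set to 0 and blank wells to 1. Combination Emax is the second-highest inhibition in the matrix, and Bliss excess is the observed combination effect minus the expected EA + EB − EA·EB, where EA and EB are the single-agent effects.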

The subject of test [2] is BT-20 (Breast Carcinoma). The method, boiled down: as §1
Test [3] relates to DG-75 (Burkitt's Lymphoma). The method, boiled down:
as §1

Test [4] deals with EW-13 (Ewing's Sarcoma). The method, boiled down: as §1
In test [5] the test system is EW-18 (Ewing's Sarcoma). The method, boiled down: as §1
Test [6] concerns H-EMC-SS (Chondrosarcoma). The method, boiled down:
as §1

For test [7], the system named is HSC-2 (Oral Cavity Carcinoma). In outline:
as §1

For test [8], the system named is HuP-T3 (Pancreatic Carcinoma). The method, boiled down: as §1
For test [9], the system named is KINGS-1 (Low Grade Glioma). The method, boiled down: as §1
Test [10] relates to KLE (Endometrial Carcinoma). The method, boiled down: as §1
For test [11], the system named is KP-2 (Pancreatic Carcinoma). The method, boiled down: as §1
Test [12] concerns KYSE-150 (Esophageal Squamous Cell Carcinoma). The method, boiled down:
as §1

Test [13] concerns LC4-1 (B-Lymphoblastic Leukemia). The method, boiled down: as §1
For test [14], the system named is LOU-NH91 (Squamous Cell Lung Carcinoma). The method, boiled down: as §1
The test system of test [15] is NCI-H513 (Other Solid Carcinomas). In outline:
as §1

The test system of test [16] is NCI-N87 (Gastric Carcinoma). The method, boiled down: as §1
In test [17] the test system is NH-12 (Neuroblastoma). The method, boiled down:
as §1

In test [18] the test system is OCUM-1 (Gastric Carcinoma). In outline: as §1
The test system of test [19] is RPMI-7951 (Melanoma). In outline:
as §1

Test [20] deals with TGBC11TKB (Gastric Carcinoma). The method, boiled down:
as §1

Regarding `CCc1c2c(nc3ccc(O)cc13)-c1cc3c(c(=O)n1C2)COC(=O)[C@]3(O)CC` [SN-38] + O=C(c1cc(Cc2n[nH]c(=O)c3ccccc23)ccc1F)N1CCN(C(=O)C2CC2)CC1 [Olaparib] (first compound max 0.3 µM, 7x7, partner max 10 µM), the Bliss excess in test [1] stood at 0.074; in [2] it was 0.107; in [3], 0.0451; in test [4], 0.0804; in test [5] it was 0.034; in [6] it was 0.0825. Further, the Bliss excess is 0.102 in test [7]; -0.0406 in test [8]; 0.0161 in test [9]; 0.0346 in test [10]; 0.0564 in test [11]; 0.0762 in test [12]. Besides, the Bliss excess is 0.0234 in test [13]; 0.0095 in [14]; 0.0188 in test [15]; 0.0599 in test [16]; -0.0089 in test [17]; 0.014 in [18]. Moreover, the Bliss excess in test [19] came to 0.0656; in [20], 0.0814.
